The test system of one data set is MDA-MB-231 cells. Put plainly: IVIS total flux in MDA-MB-231 transplanted mice. The data set is classed as in vivo, human cells in Rag2 neonatal mice. Particulars: 0 day after completing the dosing plan; compared to vehicle control. An excerpt:
FIG. 5 graphically illustrates IVIS (In Vivo Imaging System) results of ADAR1-MDA-MB-231 transplanted Rag2 mouse models, and IVIS images were taken at 6 weeks after transplant (FIG. 5A), after two weeks of therapy (FIG. 5B), and one week after therapy was completed (FIG. 5C), as discussed in further detail in Example 5, below.
Ten thousand (10k) MDA-MB-231 cells were intrahepatically transplanted into Rag2 neonatal mice, then treated with fedratinib, rebecsinib, or a combination of fedratinib and rebecsinib. IVIS images were taken at 6 weeks after transplant (FIG. 5A), after two weeks of therapy (FIG. 5B), and one week after therapy was completed (FIG. 5C). The IVIS signals from the mice were graphed by groups.
The IVIS images of these mice were taken at 0 day after completing the dosing plan and are graphed by their total flux.

Data set [1] has as its system ADAR1 and MCL1 transcripts. Put plainly: Comparative in vivo study with fedratinib. Details: species or system human cells in mice. The following applies: twice daily oral 60 mg/kg, two weeks. Here is the method: Additional aliquots of CD34+ cells from bone marrow and/or spleens of treated and control animals were used for serial transplantation assays after Rebecsinib treatment, including engraftment studies and overall survival assays. In a separate cohort of animals, mice were treated with Fedratinib for two weeks (twice daily oral delivery at 60 mg/kg) as a positive control for modulation of ADAR1 expression and activity.^8

The next data set has as its system hematologic malignancies. Particulars: Phase 1, cited from earlier work.
For another data set, the system named is solid tumors. The following applies: cited from earlier work.

The values below come from patent US20260364072A1, “METHODS FOR PROMOTING EXPANSION OF HUMAN CD34+ CELLS IN VIVO AND FOR PROMOTING NEURAL REGENERATION” (THE REGENTS OF THE UNIVERSITY OF CALIFORNIA, priority 2023, published 2026).

Structures can show the parent of a compound that is named as a salt.

As for `Cc1cnc(Nc2ccc(OCCN3CCCC3)cc2)nc1Nc1cccc(S(=O)(=O)NC(C)(C)C)c1` [fedratinib, N-tert-butyl-3-[(5-methyl2-{[4-(2-pyrrolidin-1-ylethoxy)phenyl]amino}pyrimidin-4-yl)amino]benzenesulfonamide dihydrochloride monohydrate], in the data set on MDA-MB-231 cells, the “total flux (IVIS)” value is reported as “significantly decreased”. Further, in data set [1], the ADAR1 expression result is reported as “significantly reduced ADAR1 expression” and the MCL1 splicing entry is reported as “no alteration of MCL1 splicing”.

Consider H3B-8800, for which the durable remissions entry in the data set with hematologic malignancies was “not sufficiently potent to induce durable remissions”. In the data set on hematologic malignancies (efficacy dependent on SRSF2 mutations), the “red blood transfusion independence” value is “red blood transfusion independence in some patients”.

With `CC[C@H](O)[C@@H](C)[C@H]1O[C@@H]1C[C@@](C)(O)/C=C/C=C(\C)[C@H]1OC(=O)C[C@H](O)CC[C@@](C)(O)[C@@H](OC(=O)N2CCN(C3CCCCCC3)CC2)/C=C/[C@@H]1C` [E7107], the reversible optic neuritis in the data set with solid tumors (patients with solid tumors) is 2 of 26. Moreover, the stability entry with solid tumors (related to optic neuritis) is on record as “compound instability”.
